Molecular target: T1, F508del (Homo sapiens, UniProt P13569, DEL508-508)
T1 construct: expressed in transfected cells
Assay: Protocol 2: FRET membrane potential optical assay (VIPR), identification of correction compounds
Format: cell-based
Details: F508del CFTR modulator activity; compounds of Table 1; read-out: EC30
Procedure, shortened: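 Corrector readout: membrane-potential FRET (CC2-DMPE donor, DiSBAC2(3) acceptor) on VIPR II after Cl⁻-free gluconate bath with 10 μM forskolin and 20 μM genistein. Before this, F508del-expressing NIH3T3 cells were exposed to test compound for 16 h at 37 °C without serum; 27 °C incubation served as temperature-correction control.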

T1 sequence (P13569 with tags, fused parts or gaps DEL508-508): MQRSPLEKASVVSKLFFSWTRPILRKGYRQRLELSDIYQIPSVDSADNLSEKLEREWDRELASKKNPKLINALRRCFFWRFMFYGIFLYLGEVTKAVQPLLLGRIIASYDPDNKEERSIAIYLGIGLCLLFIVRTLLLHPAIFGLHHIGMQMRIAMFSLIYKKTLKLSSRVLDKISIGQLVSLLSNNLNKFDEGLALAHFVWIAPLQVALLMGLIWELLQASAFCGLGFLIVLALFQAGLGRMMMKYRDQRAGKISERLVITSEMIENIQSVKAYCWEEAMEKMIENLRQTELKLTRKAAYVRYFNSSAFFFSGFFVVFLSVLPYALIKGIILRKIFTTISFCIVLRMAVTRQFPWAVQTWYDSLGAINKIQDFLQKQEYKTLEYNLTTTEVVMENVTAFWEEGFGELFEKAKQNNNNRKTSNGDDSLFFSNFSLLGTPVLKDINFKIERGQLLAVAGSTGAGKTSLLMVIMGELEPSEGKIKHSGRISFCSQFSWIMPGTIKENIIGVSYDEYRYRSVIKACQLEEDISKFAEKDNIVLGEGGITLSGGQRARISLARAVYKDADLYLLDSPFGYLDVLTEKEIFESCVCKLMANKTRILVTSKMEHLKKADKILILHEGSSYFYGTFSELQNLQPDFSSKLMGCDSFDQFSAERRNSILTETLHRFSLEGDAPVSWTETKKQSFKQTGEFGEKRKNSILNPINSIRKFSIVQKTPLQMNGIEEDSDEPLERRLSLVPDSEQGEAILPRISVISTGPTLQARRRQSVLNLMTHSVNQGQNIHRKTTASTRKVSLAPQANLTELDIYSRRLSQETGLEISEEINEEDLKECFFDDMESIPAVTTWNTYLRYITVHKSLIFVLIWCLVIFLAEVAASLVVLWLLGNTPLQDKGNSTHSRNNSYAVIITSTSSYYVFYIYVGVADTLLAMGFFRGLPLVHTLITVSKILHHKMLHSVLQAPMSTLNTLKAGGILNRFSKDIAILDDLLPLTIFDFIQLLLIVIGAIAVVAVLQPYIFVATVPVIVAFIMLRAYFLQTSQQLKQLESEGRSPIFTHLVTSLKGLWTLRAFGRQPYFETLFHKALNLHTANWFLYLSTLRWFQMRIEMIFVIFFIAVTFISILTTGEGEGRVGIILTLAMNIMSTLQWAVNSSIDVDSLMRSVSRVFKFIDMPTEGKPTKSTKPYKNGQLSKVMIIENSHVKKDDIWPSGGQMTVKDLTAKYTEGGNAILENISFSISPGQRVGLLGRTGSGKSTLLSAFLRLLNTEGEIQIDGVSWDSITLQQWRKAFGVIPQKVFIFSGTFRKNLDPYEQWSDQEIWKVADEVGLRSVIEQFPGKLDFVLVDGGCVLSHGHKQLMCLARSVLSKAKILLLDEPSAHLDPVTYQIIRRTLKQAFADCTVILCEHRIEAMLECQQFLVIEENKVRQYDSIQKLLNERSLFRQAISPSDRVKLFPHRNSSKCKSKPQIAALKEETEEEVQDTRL

Structure (SMILES) | EC30 [nM]
CC1CN(c2ncc(/C=C/C3CCCCC3)cc2C(=O)NS(=O)(=O)c2cccc(N)n2)C(C)(C)C1 (stereo not drawn) [Compound 2063, N-[(6-amino-2-pyridyl)sulfonyl]-5-[(E)-2-cyclohexylvinyl]-2-(2,2,4-trimethylpyrrolidin-1-yl)pyridine-3-carboxamide] | < 3000
COc1cc(CO)cc(-c2ccc(C(=O)NS(=O)(=O)c3cccnc3N)c(N3C[C@@H](C)CC3(C)C)n2)c1 [Compound 2065, N-[(2-amino-3-pyridyl)sulfonyl]-6-[3-(hydroxymethyl)-5-methoxy-phenyl]-2-[(4S)-2,2,4-trimethylpyrrolidin-1-yl]pyridine-3-carboxamide] | < 3000
C[C@@H]1CN(c2nc(-c3ccccc3Cl)ccc2C(=O)NS(=O)(=O)c2cccnc2N)C(C)(C)C1 [Compound 2066, N-[(2-amino-3-pyridyl)sulfonyl]-6-(2-chlorophenyl)-2-[(4S)-2,2,4-trimethylpyrrolidin-1-yl]pyridine-3-carboxamide] | < 3000
Cc1ccc(F)cc1-c1ccc(C(=O)NS(=O)(=O)c2ccc[nH]c2=O)c(N2C[C@@H](C)CC2(C)C)n1 [Compound 2067, 6-(5-fluoro-2-methyl-phenyl)-N-[(2-oxo-1H-pyridin-3-yl)sulfonyl]-2-[(4S)-2,2,4-trimethylpyrrolidin-1-yl]pyridine-3-carboxamide] | < 3000
C[C@@H]1CN(c2nc(-c3ccccc3OC(F)(F)F)ccc2C(=O)NS(=O)(=O)N2CC[C@H](N)C2)C(C)(C)C1 [Compound 2070, N-[(3S)-3-aminopyrrolidin-1-yl]sulfonyl-6-[2-(trifluoromethoxy)phenyl]-2-[(4S)-2,2,4-trimethylpyrrolidin-1-yl]pyridine-3-carboxamide] | < 3000
CCOc1ccc(F)cc1-c1ccc(C(=O)NS(=O)(=O)c2cccnc2N)c(N2C[C@@H](C)CC2(C)C)n1 [Compound 2071, N-[(2-amino-3-pyridyl)sulfonyl]-6-(2-ethoxy-5-fluoro-phenyl)-2-[(4S)-2,2,4-trimethylpyrrolidin-1-yl]pyridine-3-carboxamide] | < 3000
Cc1cccc(-c2ccc(C(=O)NS(=O)(=O)c3ccc[nH]c3=O)c(N3C[C@@H](C)CC3(C)C)n2)c1C [Compound 2073, 6-(2,3-dimethylphenyl)-N-[(2-oxo-1H-pyridin-3-yl)sulfonyl]-2-[(4S)-2,2,4-trimethylpyrrolidin-1-yl]pyridine-3-carboxamide] | < 3000
Cc1cc(-c2ccc(C(=O)NS(=O)(=O)c3cccc(N)n3)c(N3C[C@@H](C)CC3(C)C)n2)cc(OCCOC(C)C)n1 [Compound 2079, N-[(6-amino-2-pyridyl)sulfonyl]-6-[2-(2-isopropoxyethoxy)-6-methyl-4-pyridyl]-2-[(4S)-2,2,4-trimethylpyrrolidin-1-yl]pyridine-3-carboxamide] | < 3000
COc1ccc(-c2ccc(C(=O)NS(=O)(=O)c3ccc[nH]c3=O)c(N3C[C@@H](C)CC3(C)C)n2)cc1 [Compound 2080, 6-(4-methoxyphenyl)-N-[(2-oxo-1H-pyridin-3-yl)sulfonyl]-2-[(4S)-2,2,4-trimethylpyrrolidin-1-yl]pyridine-3-carboxamide] | 3000 to 10000
Cc1ccc(-c2ccc(C(=O)NS(=O)(=O)c3ccc[nH]c3=O)c(N3C[C@@H](C)CC3(C)C)n2)cc1F [Compound 2084, 6-(3-fluoro-4-methyl-phenyl)-N-[(2-oxo-1H-pyridin-3-yl)sulfonyl]-2-[(4S)-2,2,4-trimethylpyrrolidin-1-yl]pyridine-3-carboxamide] | < 3000
CCCOc1ccc(C)cc1-c1ccc(C(=O)NS(=O)(=O)c2cccc(N)n2)c(N2C[C@@H](C)CC2(C)C)n1 [Compound 2085, N-[(6-amino-2-pyridyl)sulfonyl]-6-(5-methyl-2-propoxy-phenyl)-2-[(4S)-2,2,4-trimethylpyrrolidin-1-yl]pyridine-3-carboxamide] | < 3000
COc1ncc(-c2ccc(C(=O)NS(=O)(=O)c3cccc(N)n3)c(N3C[C@@H](C)CC3(C)C)n2)cc1C [Compound 2086, N-[(6-amino-2-pyridyl)sulfonyl]-6-(6-methoxy-5-methyl-3-pyridyl)-2-[(4S)-2,2,4-trimethylpyrrolidin-1-yl]pyridine-3-carboxamide] | < 3000
CC(C)COc1cccc(-c2cnc(N3CC(C)CC3(C)C)c(C(=O)NS(=O)(=O)c3cccc(N)n3)c2)c1 (stereo not drawn) [Compound 2089, N-[(6-amino-2-pyridyl)sulfonyl]-5-(3-isobutoxyphenyl)-2-(2,2,4-trimethylpyrrolidin-1-yl)pyridine-3-carboxamide] | < 3000
COc1ccc(-c2ccc(C(=O)NS(=O)(=O)c3cccnc3N)c(N3C[C@@H](C)CC3(C)C)n2)c(OC)n1 [Compound 2091, N-[(2-amino-3-pyridyl)sulfonyl]-6-(2,6-dimethoxy-3-pyridyl)-2-[(4S)-2,2,4-trimethylpyrrolidin-1-yl]pyridine-3-carboxamide] | < 3000
C[C@@H]1CN(c2nc(-c3ccccc3)ccc2C(=O)NS(=O)(=O)c2ccccc2)C(C)(C)C1 [Compound 2092, N-(benzenesulfonyl)-6-phenyl-2-[(4S)-2,2,4-trimethylpyrrolidin-1-yl]pyridine-3-carboxamide] | < 3000
Cc1cc(C)cc(-c2cnc(N3CC(C)CC3(C)C)c(C(=O)NS(=O)(=O)c3cccc(N)n3)c2)c1 (stereo not drawn) [Compound 2093, N-[(6-amino-2-pyridyl)sulfonyl]-5-(3,5-dimethylphenyl)-2-(2,2,4-trimethylpyrrolidin-1-yl)pyridine-3-carboxamide] | < 3000
CCCOc1ccc(-c2cnc(N3CC(C)CC3(C)C)c(C(=O)NS(=O)(=O)c3cccc(N)n3)c2)cc1C (stereo not drawn) [Compound 2095, N-[(6-amino-2-pyridyl)sulfonyl]-5-(3-methyl-4-propoxy-phenyl)-2-(2,2,4-trimethylpyrrolidin-1-yl)pyridine-3-carboxamide] | < 3000

Second part, the compound after the results:

EC30 [nM] | Structure (SMILES)
< 3000 | CC1CN(c2ncccc2C(=O)NS(=O)(=O)c2cccc(NCc3cccc(Cl)c3)n2)C(C)(C)C1 (stereo not drawn) [Compound 2064, N—[[6-[(3-chlorophenyl)methylamino]-2-pyridyl]sulfonyl]-2-(2,2,4-trimethylpyrrolidin-1-yl)pyridine-3-carboxamide]
< 3000 | CC1CN(c2ncccc2C(=O)NS(=O)(=O)c2cccc(Nc3ccccn3)n2)C(C)(C)C1 (stereo not drawn) [Compound 2068, N—[[6-(2-pyridylamino)-2-pyridyl]sulfonyl]-2-(2,2,4-trimethylpyrrolidin-1-yl)pyridine-3-carboxamide]
3000 to 10000 | COc1ccc(CCNc2cccc(S(=O)(=O)NC(=O)c3cccnc3N3CC(C)CC3(C)C)n2)cc1 (stereo not drawn) [Compound 2072, N—[[6-[2-(4-methoxyphenyl)ethylamino]-2-pyridyl]sulfonyl]-2-(2,2,4-trimethylpyrrolidin-1-yl)pyridine-3-carboxamide]
3000 to 10000 | CC1CN(c2ncccc2C(=O)NS(=O)(=O)c2cccc(Nc3cccc4ncccc34)n2)C(C)(C)C1 (stereo not drawn) [Compound 2074, N—[[6-(5-quinolylamino)-2-pyridyl]sulfonyl]-2-(2,2,4-trimethylpyrrolidin-1-yl)pyridine-3-carboxamide]
< 3000 | CC(C)CCOc1cccc(S(=O)(=O)NC(=O)c2cccnc2N2CC(C)CC2(C)C)n1 (stereo not drawn) [Compound 2075, N-[(6-isopentyloxy-2-pyridyl)sulfonyl]-2-(2,2,4-trimethylpyrrolidin-1-yl)pyridine-3-carboxamide]
< 3000 | CC1CN(c2ncccc2C(=O)NS(=O)(=O)c2cccc(Oc3ccc(C#N)cc3)n2)C(C)(C)C1 (stereo not drawn) [Compound 2076, N—[[6-(4-cyanophenoxy)-2-pyridyl]sulfonyl]-2-(2,2,4-trimethylpyrrolidin-1-yl)pyridine-3-carboxamide]
3000 to 10000 | CC1CN(c2ncccc2C(=O)NS(=O)(=O)c2cccc(O[C@H]3CCN(Cc4ccccc4)C3)n2)C(C)(C)C1 (stereo partly drawn) [Compound 2078, N—[[6-[(3S)-1-benzylpyrrolidin-3-yl]oxy-2-pyridyl]sulfonyl]-2-(2,2,4-trimethylpyrrolidin-1-yl)pyridine-3-carboxamide]
3000 to 10000 | Cc1ccnc(Nc2cccc(S(=O)(=O)NC(=O)c3cccnc3N3CC(C)CC3(C)C)n2)c1 (stereo not drawn) [Compound 2082, N—[[6-[(4-methyl-2-pyridyl)amino]-2-pyridyl]sulfonyl]-2-(2,2,4-trimethylpyrrolidin-1-yl)pyridine-3-carboxamide]
< 3000 | CC1CN(c2ncccc2C(=O)NS(=O)(=O)c2cccc(Oc3ccccc3C(C)(C)C)n2)C(C)(C)C1 (stereo not drawn) [Compound 2083, N—[[6-(2-tert-butylphenoxy)-2-pyridyl]sulfonyl]-2-(2,2,4-trimethylpyrrolidin-1-yl)pyridine-3-carboxamide]
< 3000 | CC1CN(c2ncccc2C(=O)NS(=O)(=O)c2cccc(Nc3ccc(N4CCCCC4)cc3)n2)C(C)(C)C1 (stereo not drawn) [Compound 2087, N—[[6-[4-(1-piperidyl)anilino]-2-pyridyl]sulfonyl]-2-(2,2,4-trimethylpyrrolidin-1-yl)pyridine-3-carboxamide]
3000 to 10000 | CC1CN(c2ncc(-c3ccc(CO)cc3)cc2C(=O)NS(=O)(=O)c2cccc(N)n2)C(C)(C)C1 (stereo not drawn) [Compound 2088, N-[(6-amino-2-pyridyl)sulfonyl]-5-[4-(hydroxymethyl)phenyl]-2-(2,2,4-trimethylpyrrolidin-1-yl)pyridine-3-carboxamide]
< 3000 | COc1ccccc1CN(C)c1cccc(S(=O)(=O)NC(=O)c2cccnc2N2CC(C)CC2(C)C)n1 (stereo not drawn) [Compound 2090, N—[[6-[(2-methoxyphenyl)methyl-methyl-amino]-2-pyridyl]sulfonyl]-2-(2,2,4-trimethylpyrrolidin-1-yl)pyridine-3-carboxamide]
< 3000 | CC1CN(c2ncccc2C(=O)NS(=O)(=O)c2cccc(N3CCCC3c3ccccc3)n2)C(C)(C)C1 (stereo not drawn) [Compound 2094, N—[[6-(2-phenylpyrrolidin-1-yl)-2-pyridyl]sulfonyl]-2-(2,2,4-trimethylpyrrolidin-1-yl)pyridine-3-carboxamide]

Source: patent US10758534B2 (Vertex Pharmaceuticals Incorporated, priority 2014, dated 2020)
